Laboratory results reported in patent publication US6486185B1, “3-heteroarylidene-2-indolinone protein kinase inhibitors” (Sugen, Inc., priority 1997, dated 2002).

These compounds were tested against T1, EGFR (Homo sapiens, UniProt P00533) (assay: EGF receptor ELISA in cells engineered to express human EGF-R). Conditions: 50% inhibition of PTK activity over control.
T1 construct: expressed in transfected cells; host or cells: NIH 3T3/C7
Format: cell-based
Protocol: The cellular/catalytic assays described herein are performed in an ELISA format. The general procedure is a follows: a compound is introduced to cells expressing the test kinase, either naturally or recombinantly, for some period of time after which, if the test kinase is a receptor, a ligand known to activate the receptor's activity is added. The cells are lysed and the lysate is transferred to the wells of an ELISA plate previously coated with a specific antibody recognizing the substrate of the enzymatic phosphorylation reaction. Non-substrate components of the cell lysate are washed away and the amount of phosphorylation on the substrate is detected with an antibody specifically recognizing phosphotyrosine compared with control cells that were not contacted with a test compound.
EGF Receptor kinase activity in cells genetically engineered to express human EGF-R can be measured as described below:
The following materials and reagents are used
a. EGF Ligand: stock concentration=16.5 μM; EGF 201, TOYOBO, Co., Ltd. Japan.
b. 05-101 (UBI) (a monoclonal antibody recognizing an EGFR extracellular domain).
c. Anti-phosphotyosine antibody (anti-Ptyr) (polyclonal).
d. Detection antibody: Goat anti-rabbit lgG horse radish peroxidase conjugate, TAGO, Inc., Burlingame, Calif.
Keep solution in dark at 4 C until used.
The following protocol is used:
1. Coat ELISA plates (Corning, 96 well, Cat. #25805-96) with 05-101 antibody at 0.5 μg per well in PBS, 150 μL final volume/well, and store overnight at 4° C. Coated plates are good for up to 10 days when stored at 4° C.
2. On day of use, remove coating buffer and replace with blocking buffer (5% Carnation Instant NonFat Dry Milk in PBS). Incubate the plate, shaking, at room temperature (about 23° C. to 25° C.) for 30 minutes. Just prior to use, remove blocking buffer and wash plate 4 times with TBST buffer.
1. NIH 3T3/C7 cell line (Honegger, et al., Cell 51:199-209, 1987) can be use for this assay.
2. Choose dishes having 80-90% confluence for the experiment. Trypsinize cells and stop reaction by adding 10% CS DMEM medium. Suspend cells in DMEM medium (10% CS DMEM medium) and centrifuge once at 1000 rpm at room temperature for 5 minutes.
3. Resuspend cells in seeding medium (DMEM, 0.5% bovine serum), and count the cells using trypan blue. Viability above 90% is acceptable. Seed cells in DMEM medium (0.5% bovine serum) at a density of 10,000 cells per well, 100 μL per well, in a 96 well microtiter plate. Incubate seeded cells in 5% CO2 at 37° C. for about 40 hours.
1. Check seeded cells for contamination using an inverted microscope. Dilute drug stock (10 mg/mL in DMSO) 1:10 in DMEM medium, then transfer 5 μL to a test well for a final drug dilution of 1:200 and a final DMSO concentration of 1%. Control wells receive DMSO alone. Incubate in 5% CO2 at 37° C. for one hour.
2. Prepare EGF ligand: dilute stock EGF in DMEM so that upon transfer of 10 μL dilute EGF (1:12 dilution), 25 nM final concentration is attained.
3. Prepare fresh 10 mL HNTG* sufficient for 100 μL per well wherein HNTG* comprises: HNTG stock (2.0 mL), milli-Q H2O (7.3 mL), EDTA, 100 mM, pH 7.0 (0.5 mL), Na3VO4 0.5 M (0.1 mL) and Na4(P2O7), 0.2 M (0.1 mL).
5. After two hours incubation with drug, add prepared EGF ligand to cells, 10 μL per well, to yield a final concentration of 25 nM. Control wells receive DMEM alone. Incubate, shaking, at room temperature, for 5 minutes.
6. Remove drug, EGF, and DMEM. Wash cells twice with PBS. Transfer HNTG* to cells, 100 μL per well. Place on ice for 5 minutes. Meanwhile, remove blocking buffer from other ELISA plate and wash with TBST as described above.
7. With a pipette tip securely fitted to a micropipettor, scrape cells from plate and homogenize cell material by repeatedly aspirating and dispensing the HNTG* lysis buffer. Transfer lysate to a coated, blocked, and washed ELISA plate. Incubate shaking at room temperature for one hour.
8. Remove lysate and wash 4 times with TBST. […]

T1 sequence (P00533 25-1210): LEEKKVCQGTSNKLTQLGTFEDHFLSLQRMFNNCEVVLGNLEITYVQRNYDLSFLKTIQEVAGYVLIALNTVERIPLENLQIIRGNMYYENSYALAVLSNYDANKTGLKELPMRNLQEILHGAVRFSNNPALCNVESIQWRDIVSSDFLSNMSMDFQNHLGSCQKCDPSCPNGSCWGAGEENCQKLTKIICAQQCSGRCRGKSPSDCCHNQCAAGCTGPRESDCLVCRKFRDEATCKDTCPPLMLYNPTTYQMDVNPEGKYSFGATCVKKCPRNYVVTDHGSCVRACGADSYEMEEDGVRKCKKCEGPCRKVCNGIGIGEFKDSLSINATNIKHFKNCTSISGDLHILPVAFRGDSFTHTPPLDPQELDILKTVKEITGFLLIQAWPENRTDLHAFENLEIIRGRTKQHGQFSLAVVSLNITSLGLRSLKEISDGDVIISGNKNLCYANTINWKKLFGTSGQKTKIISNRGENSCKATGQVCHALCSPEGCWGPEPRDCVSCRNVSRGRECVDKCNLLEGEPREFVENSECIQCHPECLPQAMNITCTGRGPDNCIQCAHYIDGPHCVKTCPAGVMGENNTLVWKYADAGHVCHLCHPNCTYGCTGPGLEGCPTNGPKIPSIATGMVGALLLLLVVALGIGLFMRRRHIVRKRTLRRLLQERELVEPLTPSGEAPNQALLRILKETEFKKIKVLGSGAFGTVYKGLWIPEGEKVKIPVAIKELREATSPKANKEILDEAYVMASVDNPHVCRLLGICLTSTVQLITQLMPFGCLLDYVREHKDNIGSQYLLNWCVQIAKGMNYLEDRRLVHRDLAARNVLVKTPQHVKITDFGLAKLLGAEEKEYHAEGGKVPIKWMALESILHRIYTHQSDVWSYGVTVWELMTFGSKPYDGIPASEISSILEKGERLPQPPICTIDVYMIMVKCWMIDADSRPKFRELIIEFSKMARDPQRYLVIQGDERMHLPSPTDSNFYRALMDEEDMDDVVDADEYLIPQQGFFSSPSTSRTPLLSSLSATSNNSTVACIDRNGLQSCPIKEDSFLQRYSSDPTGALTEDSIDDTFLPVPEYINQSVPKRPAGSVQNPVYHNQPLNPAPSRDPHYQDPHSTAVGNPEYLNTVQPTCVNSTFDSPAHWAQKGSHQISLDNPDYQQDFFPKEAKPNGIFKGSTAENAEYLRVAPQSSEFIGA

**Q.** How did the IC50 turn out when `CCOC(=O)c1c(C)[nH]c(C=C2C(=O)Nc3ccc(NC(=O)c4ccc(C(=O)OC)cc4)cc32)c1C` [3-(2,4-dimethyl-3-ethoxycarbonylpyrrol-5-methylidenyl)-5-(4-methoxycarbonylbenzamido)-2-indolinone] was run?
**A.** The IC50 was greater than 10 µM.

**Q.** How did the IC50 turn out when `CCOC(=O)c1c(C)[nH]c(C=C2C(=O)Nc3ccc(Br)cc32)c1C` [3-(2,4-dimethyl-3-ethoxycarbonylpyrrol-5-methylidenyl)-5-bromo-2-indolinone] was run?
**A.** Its IC50 is greater than 25 µM.

**Q.** With `CC(=O)c1[nH]c(C=C2C(=O)Nc3ccccc32)c(C)c1C` [3-(2-acetyl-3,4-dimethylpyrrol-5-methylidenyl)-2-indolinone] as the compound, how does the IC50 read?
**A.** The IC50 was greater than 100 µM.

**Q.** `COC(=O)Cc1c(Cl)[nH]c(C=C2C(=O)Nc3ccccc32)c1C(=O)OC` [3-(2-chloro-4-methoxycarbonyl-3-methoxycarbonylmethylpyrrol-5-methylidenyl)-2-indolinone] was tested. Which IC50 did it give?
**A.** The IC50 was greater than 50 µM.

**Q.** For `CCOC(=O)c1[nH]c(C=C2C(=O)Nc3ccccc32)c(C(C)=O)c1C` [3-(4-acetyl-2-ethoxycarbonyl-3-methylpyrrol-5-methylidenyl)-2-indolinone], which IC50 is on record?
**A.** The IC50 was greater than 10 µM.

**Q.** How did the IC50 turn out when `CCOC(=O)c1c[nH]c(C=C2C(=O)Nc3ccccc32)c1C` [3-(4-ethoxycarbonyl-3-methylpyrrol-2-methylidenyl)-2-indolinone] was run?
**A.** The IC50 was greater than 100 µM.

**Q.** With `CCOC(=O)CCc1c(C(=O)OCC)[nH]c(C=C2C(=O)Nc3ccccc32)c1CC(=O)OCC` [3-[2-ethoxycarbonyl-3-(2-ethoxycarbonylethyl)-4-ethoxycarbonylmethyl)pyrrol-5-methylidenyl)-2-indolinone] as the compound, how does the IC50 read?
**A.** The IC50 was greater than 10 µM.

**Q.** `Cc1c[nH]c(C=C2C(=O)Nc3ccccc32)c1CCC(=O)O` [3-[3-(2-carboxyethyl-4-methylpyrrol-2-methylidenyl]-2-indolinone] was tested. Which IC50 did it give?
**A.** Its IC50 is greater than 100 µM.

**Q.** Which IC50 does the source give for `COC(=O)CCc1c[nH]c(C=C2C(=O)Nc3cc(OC)c(OC)cc32)c1C` [3-[4-(2-methoxycarbonylethyl)-3-methylpyrrol-2-methylidenyl]-5,6-dimethoxy-2-indolinone] here?
**A.** The IC50 was greater than 50 µM.

**Q.** Which IC50 does the source give for `COC(=O)CCc1c[nH]c(C=C2C(=O)Nc3ccccc32)c1C` [3-[4-(2-methoxycarbonylethyl-3-methylpyrrol-2-methylidenyl]-2-indolinone] here?
**A.** Its IC50 is greater than 100 µM.
